Measurements reported in patent publication US20040044067A1, “Toralactone and its derivation and the use of decreasing blood-fat and losing weight” (priority 2000, published 2004).

Test system: hyperlipemia guinea pigs
Assay: Effect on serum cholesterol and triglyceride in hyperlipemia guinea pigs (high-cholesterol feed, 30 days)
Assay type: in vivo, guinea pig
Details: for Serum TC (total cholesterol) / Serum TG (triglyceride): guinea pigs on high-cholesterol feed (basic feed+0.5% cholesterol) plus 10 mg/(kg·d) compound for 30 days, serum taken 24 h after last feeding, n=10
Protocol: The test was performed as described in Fuhua, Wang, Chinese Journal of Surgery, 1991; 8 (1): 17. 60 healthy guinea pigs of 200-500 g were randomly divided into 6 groups based on body weight and sex. Each group contained 10 animals, including both male and female. The guinea pigs of Group 1 were fed with high-cholesterol feed (basic feed+0.5% cholesterol) at an amount of 20 g per 100 g body weight per day. Groups 2, 3, 4, 5 were test groups, the guinea pigs of which were fed with high-cholesterol feed plus 10 mg/(kg·d) of Compound (1), (2), (3) or (4) for 30 days. The guinea pigs of Group 6 were fed with basic feed only. The feeding for each group continued for 30 days, and 24 hours after the last feeding, the guinea pigs were anaesthetized i.p. with 1 g/kg Urethane. Blood was taken from heart, and serum was separated. The level of serum total cholesterol (TC) and triglyceride (TG) were determined.
In the above procedure, cholesterol was determinated by enzymatic analysis, using enzymatic agent assay kit from BGH Company (Taiwan). All the operations were carried out according to the manufacturer's instruction, and the determination was accomplished in ENCOREII automatic biochemistry analyser.

Substance | Serum TC (total cholesterol) [mmol/L] | Serum TG (triglyceride) [mmol/L] | Effect on the level of serum TC and TG (in words) (10 mg/(kg·d)×30d, hyperlipemia guinea pigs)
neotoralactone [Compound (1)] | 4.21 ± 1.9 | 1.21 ± 0.3 | 
neotoralactone-6-O-β-D-galactoside [Compound (4)] | 3.71 ± 1.1 | 1.22 ± 0.2 | 
neotoralactone-6-O-β-D-glucoside [Compound (2)] |  |  | most prominent
neotoralactone-8-O-β-D-glucoside [Compound (3)] | 3.81 ± 0.9 | 1.18 ± 0.2 | 
